The values that follow come from patent US5215889A, “Catalytic and reactive polypeptides and methods for their preparation and use” (The Regents of the University of California, priority 1989, dated 1993).

Experiment [1] addresses MOPC315 Fv variant Fv(Y34FL), Tyr 34L to Phe. Put plainly: Fv fluorescence titration with DNP-L-lysine. The class given is binding, murine. The settings on record: pH 6.8; ±SE. The procedure:
(§1) FIG. 21 is a plot of Fv fluorescence titration with DNP-L-lysine as described in Example 6 of the Experimental section herein. Fv(315)(·),Fv(Y34FL)(Δ), or Fv(Y34HL)(o)(400 μl, 450-500 nM, ε280 nm=37,500 M^-1) in 100 mM potassium phosphate, pH 6.8 (buffer A), was titrated with solutions of 10-100 μM DNP-L-lysine (ε360 nm =17,500 M^-1) in buffer A while monitoring the protein fluorescence (excitation: 282 nm; emission: 343 nm). Fluorescence was corrected for the change in volume. Dissociation constants (KD) were determined by a modified Scatchard analysis.
(§2) The binding of ε-2,4-DNP-(L)-lysine (DNP Lys) by mutant wild type Fv proteins was assessed by titration of the intrinsic fluorescence of MOPC315 Fv (Hochman et al. (1973) supra; Hochman et al. (1977) supra), as shown in FIG. 21. […] DNP-aminoalkyl carboxylic acids of different lengths 6-9 (FIG. 16) were used to probe the location of the positively charged imidazole ring with respect to the DNP site in Fv(Y34HL) at pH 6.0.

For experiment [2], the target named is MOPC315 Fv variant Fv(Y34HL), Tyr 34L to His. Description: Fv fluorescence titration with DNP-L-lysine. It counts as binding, murine. The settings on record: pH 6.8; ±SE. The method, then:
as §1, §2

In experiment [3] the target is T1, MOPC315 Fv, wild type, Fv(315) (Mus musculus, UniProt P01729+P01822).
T1 construct: The Fv fragment (26 kD) is a heterodimer consisting of two peptides, VH (14 kD) and VL (12 kD); made in house; host or cells: MOPC315 myeloma ascites (Balb/c mice), IgA cleaved with pepsin
Description: Fv fluorescence titration with DNP-L-lysine. The class given is binding, murine. To be noted: pH 6.8; ±SE. The method, then: as §1, §2

The target of experiment [4] is T2, MOPC315 Fv variant Fv(Y34HL), Tyr 34L to His (Mus musculus, UniProt P01729+P01822, Y53H).
T2 construct: Antibody-derived VH was prepared by denaturing ion exchange chromatography of authentic MOPC315 Fv, obtained from pepsin digestion of purified IgA; lambda cII fusion with Factor Xa site (IleGluGlyArg) (N, cleaved yes); made in house; host or cells: VL: E. coli MZ1 (cII fusion, inclusion bodies); VH: pepsin-cleaved MOPC315 IgA from mouse ascites
Put plainly: Hydrolysis of DNP coumarin esters 1-3 by Fv. The class given is biochemical, murine. The procedure:
(§3) FIG. 22 is a Lineweaver-Burke plot of initial rate data obtained for the hydrolysis of 1 as described in Example 6 of the Experimental section herein. Four μl of a 100-fold concentrated solution of substrate 1 in DMSO was added to the 400 μl of Fv (115 nM) in buffer A while monitoring 7-hydroxycoumarin fluorescence at 25° C. (excitation:355nm; emission: 457 nm). A standard of 7-hydroxycoumarin was added at the completion of each assay to assess quenching of coumarin fluorescence by DNP at high substrate concentrations. The buffer background rate was subtracted from the initial rates. Each point represents the average velocity of at least duplicate experiments. Factor X, Factor Xa, or Russell's viper venom had no hydrolytic activity towards 1.
(§4) The ability of wild type and mutant Fvs to hydrolyze esters 1-3 was assayed by measuring the rate of coumarin release fluorimetrically at pH 6.8 (Pollack et al. (1988) supra; Pollack (1989) supra). […] Under these conditions, Fv(Y34HL) turns over at least 11 times and still retains 44% of its activity. The loss of activity is likely due to the accumulation of the inhibitory reaction product 8. […] Ester 2 was a poor substrate (kcat (2)=0.015 min^-1); and the hydrolysis of 3 was not accelerated (kcat (3)<0.005 min^-1). […] The initial rate of hydrolysis of 1 by Fv(Y34HL) at pH 6.8 is approximately 45-fold faster than the reaction with either […] (Table 2). At pH 8.7, the reactivity of Fv(Y34HL) and Fv(315) both increase, but differentially (v[Fv(Y34HL ]/v[Fv(315)]=3.3, at 10 μM 1). Under these conditions Fv(Y34HL) catalytically hydrolyzes 1 while Fv(315) reacts stoichiometrically. The increased reactivity of Fv(315) at higher pH may be due to deprotonation of the tyrosine hydroxyl and subsequent transesterification to form a relatively stable phenol ester.

The subject of experiment [5] is MOPC315 Fv variant Fv(Y34FL), Tyr 34L to Phe. Put plainly: Hydrolysis of DNP coumarin esters 1-3 by Fv. The class given is biochemical, murine. The settings on record: pH 6.8. The procedure: as §3, §4
The target of experiment [6] is T1, MOPC315 Fv, wild type, Fv(315). Description: Hydrolysis of DNP coumarin esters 1-3 by Fv. The settings on record: pH 6.8. The class given is biochemical, murine. The procedure:
as §3, §4

T2 sequence (P01729 with tags, fused parts or gaps Y53H): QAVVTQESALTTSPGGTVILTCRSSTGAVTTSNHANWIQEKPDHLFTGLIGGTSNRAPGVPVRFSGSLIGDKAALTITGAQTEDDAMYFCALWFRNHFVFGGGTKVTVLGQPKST
T2 sequence (P01822 19-137): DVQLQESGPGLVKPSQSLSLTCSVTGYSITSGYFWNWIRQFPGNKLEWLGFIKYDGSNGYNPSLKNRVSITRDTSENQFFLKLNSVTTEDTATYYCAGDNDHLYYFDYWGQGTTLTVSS
T1 sequence (P01822 19-137): as above
T1 sequence (P01729 20-129): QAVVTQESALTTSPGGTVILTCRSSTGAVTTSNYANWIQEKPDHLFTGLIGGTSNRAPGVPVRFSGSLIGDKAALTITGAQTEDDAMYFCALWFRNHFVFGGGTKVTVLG

Usually Kd stands for a measure of binding affinity in units of concentration. Broadly, the Ki is a measure of affinity in units of concentration, obtained from inhibition or displacement. With `N[C@@H](CCCCNc1ccc([N+](=O)[O-])cc1[N+](=O)[O-])C(=O)O` [DNP-L-lysine, ε-2,4-DNP-(L)-lysine], the Kd worked out at 270 ± 30 nM in experiment [1], 1400 ± 300 nM in experiment [2] and 270 ± 30 nM in experiment [3]. Moreover, the Ki in experiment [4] was 3800 ± 1500 nM.
In the case of `O=C(CCCCNc1ccc([N+](=O)[O-])cc1[N+](=O)[O-])Oc1ccc2ccc(=O)oc2c1` [compound 1, 7-hydroxycoumarin ester of 5-(2,4-dinitrophenyl)-aminopentanoic acid], in experiment [5], the “kcat (Table 2, Fv(Y34FL))” value turned out to be 0.004 min. Besides, in experiment [4] (pH 6.8, SE (n = 3)), the “kcat (Table 2, Fv(Y34HL))” value is 0.18 ± .03 min. Also, the “kcat (Table 2, Fv(315))” value in experiment [6] was found to be 0.004 min.
